{
  "source": "patent US20220347167A1",
  "about": "“A NEW TREATMENT FOR MEIBOMIAN GLAND DYSFUNCTION” (The Schepens Eye Research Institute, Inc., priority 2019, published 2022)",
  "tested_on": "HIF1α",
  "test": "HIF1α expression in CoCl2-stimulated HepG2 cells (positive control for HIF1α antibody)",
  "assay_type": "cell-based, human",
  "details": "4 hours of CoCl2 treatment",
  "procedure": "After culture in DMEM/F12+10% FBS under normoxic conditions for 7 days, cells were exposed to 21% O2, 1% O2 and 10 μM Roxa, alone or in combination, for an additional 6 hours. The cells were lysed in 2× Laemmli sample buffer (Bio-Rad Laboratories, Hercules, Calif.) and sonicated to extract nuclear protein [Andersen et al. (2002) Current biology: CB 12:1-11]. Human hepatocellular carcinoma cell lines (HepG2 cells) (America Type Culture Collection, Manassas, Va.), which express high concentration of HIF1α under CoCl2 stimulation for 4 hours [Yoo et al. (2014) Journal of cellular biochemistry 115:1147-1158], were used as a positive control for HIF1α antibody. The CoCl2 was purchased from Sigma-Aldrich Corp (St. Louis, Mo.). Cell lysates were then evaluated for HIF1α (1:1000, BD Biosciences, San Jose, Calif.) or β-actin (1:10,000, Cell Signaling Technology) expression. Secondary antibodies were horseradish peroxidase (HRP)-conjugated goat anti-rabbit or goat anti-mouse IgG (both 1:5000, Sigma-Aldrich). Densitometry was performed using ImageJ (at the World Wide Web website of rsb.info.nih.gov/ij).",
  "data": [
    {"compound": "[Cl-].[Cl-].[Co+2]", "note": "[CoCl2, cobalt (II) chloride]", "values": [
      {"measurement": "HIF1α protein in HepG2 cell lysates", "value": "substantial amounts of HIF1α protein"}
    ]}
  ]
}
